Results published in patent US12479895B2, “C-terminal CDNF and MANF fragments, pharmaceutical compositions comprising same and uses thereof” (MyNeuroCure Oy, priority 2018, dated 2025).

B1: glial cell line-derived neurotrophic factor (protein, UniProt P39905 78-211, looked up)
Glial cell line-derived …: SPDKQMAVLPRRERNRQAAAANPENSRGKGRRGQRGKNRGCVLTAIHLNVTDLGLGYETKEELIFRYCSGSCDAAETTYDKILKNLSRNRRLVSDKVGQACCRPIAFDDDLSFLDDNLVYHILRKHSAKRCGCI
notes: Positive control neurotrophic factor, 100 ng/ml

Legend:
ER stressed SCG neurons = test: Survival of tunicamycin-treated (ER stressed) SCG sympathetic neurons after microinjection; assay type: cell-based, mice; conditions: tunicamycin 2 μM; for survived neurons as % compared to neurons grown in the presence of NGF: microinjected into cytoplasm, CDNF (400); for rescue of ER stressed SCG neurons (result in words): protein or peptide microinjected into the cytoplasm, living fluorescent neurons counted after 3 days
Protocol: Non-neuronal cells were removed by extensive preplating. Almost pure neurons were cultured in polyornithine/laminin (Sigma)-coated 35-mm plastic dishes in the small-size standard microislands in the Neurobasal medium and B27 supplement (Invitrogen/Gibco) in the presence of 30 ng/ml mouse nerve growth factor (NGF) (Promega) for 5-6 days. NGF was deprived by extensive washing and addition of the function-blocking anti-NGF antibodies (Roche). The neurons were pressure-microinjected with special neuronal microinjection equipment (Hellman et al., 2011; Hamner et al., 2001; Lindholm et al., 2002; Sun et al., 2001; Yu et al., 2003)(Sun et al., 2001; Sun et al., 2003). For the survival assay, all neurons on the microislands were counted in the beginning (initial number) and the end (three days) of the experiment and expressed as % of initial.
Microinjection of the sympathetic neurons was performed as described earlier (Yu, L. Y., Jokitalo, E., Sun, Y. F., Mehlen, P., Lindholm, D., Saarma, M., and Arumae, U. (2003) J Cell Biol. 163, 987-997). Plasmids for CDNF have been described earlier. Briefly, newborn mouse SCG neurons were grown with NGF (Promega) for 5-6 days then the nuclei were microinjected with the expression plasmids for full-length (FL)-CDNF and C-CDNF together with a reporter plasmid for enhanced green fluorescent protein (EGFP), using vector concentration of 10 ng/ul in each experiment. […] For protein microinjection, recombinant full length (FL)-CDNF, C-CDNF proteins in PBS at 200 ng/ul were microinjected directly into the cytoplasm together with fluorescent reporter Dextran Texas Red (MW 70000 Da) (Invitrogen, Molecular Probes) that facilitates identification of the successfully injected neurons. Next day tunicamycin (2 μM) was added, and after 3 days the living fluorescent neurons were counted. Living fluorescent (EGFP-expressing or Dextran Texas Red-containing) neurons were “blindly” counted three days later and expressed as percent of initial living fluorescent neurons counted 2-3 hours after microinjection. The experiments with plasmids were repeated on independent cultures 5 times for plasmid experiment, whereas four independent protein injection experiments were performed. On average, 50-80 neurons were successfully injected per experimental group. The results were expressed as the mean±the SEM. Data of each experimental group was compared with control plasmid PCR3.1 (vector) or PBS (in the protein injection experiments) by one-way ANOVA and post hoc Dunnett's t test. The null hypothesis was rejected at p<0.05.

dopamine neurons = test: Survival of TH-positive dopamine neurons in dissociated midbrain floor cultures; assay type: cell-based, mouse; conditions: 5 days
Protocol: To study the dopamine neurons (Yu et al., 2008; Yu and Arumae, 2008), the midbrain floors were dissected from the ventral mesencephali of 13.5-d-old NMRI strain mouse embryos. Tissues were incubated with 0.5% trypsin (ICN Biomedical), then mechanically dissociated using a large fire-polished Pasteur pipette. The neurons were grown on the poly-L-ornithine-coated (Sigma) 96-well culture plates in DMEM/F12 medium (Invitrogen) containing N2 supplement (Invitrogen) in the presence or absence of GDNF (100 ng/ml) or with CDNF, MANF, C-CDNF and C-MANF polypeptides at different concentrations for five days. Same amount of the neurons were plated to each well at the beginning of the experiments. The cultures without added neurotrophic factors served as the negative control. As the midbrain cultures contain several neuronal types, the cultures were fixed and immunostained with the antibodies to tyrosine hydroxylase (TH) (Millipore), a specific marker for the dopaminergic neurons. Images of each well were scanned by CellInsight™ and immunopositive neurons were counted by CellProfiler and CellProfiler analyst software. Data are expressed as a percentage of GDNF-maintained TH-positive neurons. All experiments were repeated at least three times on the independent cultures. The results were expressed as the mean the SEM and were tested for the significance by either one-way ANOVA and Tukey's post hoc test or by two-tailed Student's t-test. The null hypothesis was rejected at P≤0.05.

[1] = Table 1B (FIG. 16), exp1, counted after 3 days
[2] = Table 1B (FIG. 16), exp2, counted after 3 days
[3] = Table 1B (FIG. 16), exp3, counted after 3 days
[4] = Table 3B (FIG. 17), AVG, 1 ng/ml
[5] = Table 3B (FIG. 17), AVG, 10 ng/ml
[6] = Table 3B (FIG. 17), AVG, 100 ng/ml
[7] = Table 3B (FIG. 17), AVG, 1000 ng/ml

Row | Molecule | survived neurons as % compared to neurons grown in the presence of NGF (ER stressed SCG neurons; [1]) [% NGF] | survived neurons as % compared to neurons grown in the presence of NGF (ER stressed SCG neurons; [2]) [% NGF] | survived neurons as % compared to neurons grown in the presence of NGF (ER stressed SCG neurons; [3]) [% NGF] | rescue of ER stressed SCG neurons (result in words) (ER stressed SCG neurons) | survived neurons as % compared to neurons grown in the presence of GDNF (dopamine neurons; [4]) [% GDNF] | survived neurons as % compared to neurons grown in the presence of GDNF (dopamine neurons; [5]) [% GDNF] | survived neurons as % compared to neurons grown in the presence of GDNF (dopamine neurons; [6]) [% GDNF] | survived neurons as % compared to neurons grown in the presence of GDNF (dopamine neurons; [7]) [% GDNF] | protection of dopaminergic neurons in culture (result in words) (dopamine neurons; added to the culture medium, TH-positive neurons counted) | survived neurons as % compared to neurons grown in the presence of NGF (ER stressed SCG neurons; Table 1A (FIG. 14), AVG of exp1-2) [% NGF] | survived neurons as % compared to neurons grown in the presence of NGF (ER stressed SCG neurons; Table 1A (FIG. 14), exp1, counted after 3 days) [% NGF] | survived neurons as % compared to neurons grown in the presence of NGF (ER stressed SCG neurons; Table 1A (FIG. 14), exp2, counted after 3 days) [% NGF] | rescue of ER stressed SCG sympathetic neurons (result in words) (ER stressed SCG neurons; expressed from microinjected plasmids, living fluorescent neurons counted after three days) | survived neurons as % compared to neurons grown in the presence of GDNF (dopamine neurons; Table 3A (FIG. 15), AVG, 100 ng/ml) [% GDNF] | survived neurons as % compared to neurons grown in the presence of GDNF (dopamine neurons; Table 3A (FIG. 15), exp1, 100 ng/ml) [% GDNF] | survived neurons as % compared to neurons grown in the presence of GDNF (dopamine neurons; Table 3A (FIG. 15), exp2, 100 ng/ml) [% GDNF] | survived neurons as % compared to neurons grown in the presence of GDNF (dopamine neurons; Table 3A (FIG. 15), exp3, 100 ng/ml) [% GDNF]
1 | TLDLASVDLRKMRVAEPKQILHSWGEECRACAEKTDYVNLIQELAPKYA (Mutated C-CDNF peptide) [pep12] | 86.74 | 86.15 | 70.17 | rescue | 68.57 | 83.1 | 87.93 | 84.16 | best protective effect |  |  |  |  |  |  |  | 
2 | TLDLASVDLRKMRVAELKQILHSWGEECRASAEKTDYVNLIQELAPKYA (C-CDNF peptide with single amino acid substitution) [pep10] | 42.46 | 45.16 | 40.35 |  | 54.25 | 63.09 | 68.97 | 69.16 |  |  |  |  |  |  |  |  | 
3 | cerebral dopamine neurotrophic factor [CDNF] | 86.00 | 71.23 | 83.33 | rescue |  |  |  |  |  | 88.04 | 85.71 | 90.36 | rescue |  |  |  | 
4 | B1 |  |  |  |  |  |  | 100 |  |  |  |  |  |  | 100 | 100 | 100 | 100
